Experimental findings from paper PMC5439949, “Structural features of PhoX, one of the phosphate-binding proteins from Pho regulon of Xanthomonas citri” (PLoS ONE, 2017) are described below.

One assay has as its target PstS (Xanthomonas citri, UniProt A0AAI8ESD8). In words: thermal unfolding by CD at […] nm. The settings on record: Tm without to with 30 μM NaH2PO4; 2 μM protein, 10 mM Tris-HCl pH 8.0, 20-95 °C. The class given is binding.
The next assay concerns the target PhoX (Xanthomonas citri, UniProt A0AAI8ERC0). Nature of the assay: thermal unfolding by CD at […] nm. In kind it is binding. To be noted: Tm without to with 30 μM NaH2PO4; 2 μM protein, 10 mM Tris-HCl pH 8.0, 20-95 °C.

Chain of PstS (A0AAI8ESD8 entry or part of it): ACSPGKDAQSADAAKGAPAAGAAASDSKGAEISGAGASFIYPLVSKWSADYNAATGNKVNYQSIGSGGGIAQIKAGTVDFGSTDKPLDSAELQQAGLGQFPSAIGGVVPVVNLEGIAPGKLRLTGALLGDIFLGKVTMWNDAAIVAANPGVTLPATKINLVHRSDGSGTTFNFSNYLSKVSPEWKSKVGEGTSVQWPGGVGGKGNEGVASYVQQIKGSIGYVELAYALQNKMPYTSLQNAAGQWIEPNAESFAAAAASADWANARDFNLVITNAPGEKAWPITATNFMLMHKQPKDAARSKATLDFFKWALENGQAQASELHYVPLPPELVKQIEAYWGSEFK
Chain of PhoX (A0AAI8ERC0 entry or part of it): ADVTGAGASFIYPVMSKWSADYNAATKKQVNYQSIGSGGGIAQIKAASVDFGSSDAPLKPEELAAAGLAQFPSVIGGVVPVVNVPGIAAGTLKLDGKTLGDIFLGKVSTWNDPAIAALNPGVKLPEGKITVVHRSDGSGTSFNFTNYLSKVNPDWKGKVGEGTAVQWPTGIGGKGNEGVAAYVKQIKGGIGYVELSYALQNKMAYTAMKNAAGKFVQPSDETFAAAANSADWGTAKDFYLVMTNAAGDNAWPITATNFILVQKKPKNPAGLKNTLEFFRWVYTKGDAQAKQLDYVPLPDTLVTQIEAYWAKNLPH

One may read the Tm as the temperature at which the thermal transition is half complete. Consider `O=P(O)(O)O` [phosphate], for which the Tm fell in the range of 71 to 78 °C at PstS and 64 to 77 °C on PhoX.
